This note sets out measurements from patent US10322191B2, “Targeted conjugates and particles and formulations thereof” (TARVEDA THERAPEUTICS, INC., priority 2014, dated 2019).

One may read the IC50 as the concentration that inhibits the measured activity by half.

The test deals with NCI-H524 (ATCC) human lung cancer cells. The test is classed as cell-based. Particulars: for IC50: Table 15. As to the method:
Conjugates were assessed in an in vitro assay evaluating inhibition of cell proliferation. NCI-H524 (ATCC) human lung cancer cells were plated in 96 well, V-bottomed plates (Costar) at a concentration of 5,000 cells/well and 24 hours later were treated with compound for 2 hours and further incubated 70 hours. Compound starting dose was 20 μM and three-fold serial dilutions were done for a total of ten points. After 2 hours of treatment, cells were spun down, the drug containing media was removed, and fresh complete medium was added and used to resuspend the cells, which were spun again. After removal of the wash media, the cells were resuspended in complete medium, then transferred into white walled, flat bottomed 96 well plates. […] Proliferation was measured using CellTiter Glo reagent using the standard protocol (Promega) and a Glomax multi+detection system (Promega). Percent proliferation inhibition was calculated using the following formula: % inhibition=(control-treatment)/control*100. Control is defined as vehicle alone. IC50 curves were generated using the nonlinear regression analysis (four parameter) with GraphPad Prism 6.
Conjugates of the present invention were assessed in an in vitro assay evaluating inhibition of cell proliferation. NCI-H524 (ATCC) human lung cancer cells were plated in 96 well, V-bottomed plates (Costar) at a concentration of 5,000 cells/well. 24 hours later, cells were treated with either conjugate for 2 hours and further incubated 70 hours, or for octreotide competition experiments, treated with 100 μM octreotide for 30 min, and then treated with conjugate for 2 hours, and further incubated for 70 hours. Conjugate starting dose was 20 μM and three fold serial dilutions were done for a total of ten points. After 2 hours of treatment, cells were spun down, the drug containing media was removed, and fresh complete medium was added and used to resuspend the cells, which were spun again. After removal of the wash media, the cells were resuspended in complete medium, then transferred into white walled, flat bottomed 96 well plates. […] Proliferation was measured using CellTiter Glo reagent using the standard protocol (Promega) and a Glomax multi+detection system (Promega). Percent proliferation inhibition was calculated using the following formula: % inhibition=(control-treatment)/control*100. Control is defined as vehicle alone. IC50 curves were generated using the nonlinear regression analysis (four parameter) with GraphPad Prism 6.
Conjugates of the present invention were tested for their activity dependence on the somatostatin receptor. Active agent Z in the conjugate was selected from auristatin, carbazitaxel, DM1, doxorubicin, platinum, SN-38 and vinblastine. Active agent Z is connected to octreotide with various linkers. Proliferation IC50 values of the conjugates were measured. Proliferation IC50 values of the conjugates without octreotide competition were also measured. The ratio of IC50 with octreotide competition and IC50 without octreotide competition is an indicator of whether activity is at least partially dependent on bind to the somatostatin receptor.

The mark [1] stands for this setting: treated 2 hours, further incubated 70 hours, read-out: H524 IC50.
Where [2] appears, read: read-out: H524 IC50+ 100 uM octreotide, 100 μM octreotide for 30 min, then conjugate 2 hours, 70 hours incubation.

Where two headings read alike, the source gives them in different places. Some results are limits rather than exact numbers.

Regarding `COc1cc2cc(c1Cl)N(C)C(=O)C[C@H](OC(=O)[C@H](C)N(C)C(=O)CCSSCCC(=O)N[C@H](Cc1ccccc1)C(=O)N[C@H]1CSSC[C@@H](C(=O)N[C@H](C(=O)O)[C@@H](C)O)NC(=O)[C@H]([C@@H](C)O)NC(=O)[C@H](CCCCN)NC(=O)[C@@H](Cc3c[nH]c4ccccc34)NC(=O)[C@H](Cc3ccc(O)cc3)NC1=O)[C@]1(C)O[C@H]1[C@H](C)[C@@H]1C[C@@](O)(NC(=O)O1)[C@H](OC)/C=C/C=C(\C)C2` [Conjugate 74], the IC50 came out at 549 nM under setting [1] and 562 nM under setting [2].

Regarding `COc1cc2cc(c1Cl)N(C)C(=O)C[C@H](OC(=O)[C@H](C)N(C)C(=O)CCSSC(C)CCN[C@H](Cc1ccccc1)C(=O)N[C@H]1CSSC[C@@H](C(=O)N[C@H](CO)[C@@H](C)O)NC(=O)[C@H]([C@@H](C)O)NC(=O)[C@H](CCCCN)NC(=O)[C@@H](Cc3c[nH]c4ccccc34)NC(=O)[C@H](Cc3ccccc3)NC1=O)[C@]1(C)O[C@H]1[C@H](C)[C@@H]1C[C@@](O)(NC(=O)O1)[C@H](OC)/C=C/C=C(\C)C2` (stereo partly shown) [Conjugate 82], the IC50 runs as follows: under setting [1], 148 nM; under setting [2], 867 nM.

As to `COc1cc2cc(c1Cl)N(C)C(=O)C[C@H](OC(=O)[C@H](C)N(C)C(=O)CCSSCCCN1CCN(CC(=O)N[C@H](Cc3ccccc3)C(=O)N[C@H]3CSSC[C@@H](C(=O)N[C@H](CO)[C@@H](C)O)NC(=O)[C@H]([C@@H](C)O)NC(=O)[C@H](CCCCN)NC(=O)[C@@H](Cc4c[nH]c5ccccc45)NC(=O)[C@H](Cc4ccccc4)NC3=O)CC1)[C@]1(C)O[C@H]1[C@H](C)[C@@H]1C[C@@](O)(NC(=O)O1)[C@H](OC)/C=C/C=C(\C)C2` [Conjugate 86], the IC50 reads like this: under setting [1], 386 nM; under setting [2], 553 nM.

For the molecule `COc1cc2cc(c1Cl)N(C)C(=O)C[C@H](OC(=O)[C@H](C)N(C)C(=O)CCSSCCOCCOCCOCCOCCCN[C@H](Cc1ccccc1)C(=O)N[C@H]1CSSC[C@@H](C(=O)N[C@H](CO)[C@@H](C)O)NC(=O)[C@H]([C@@H](C)O)NC(=O)[C@H](CCCCN)NC(=O)[C@@H](Cc3c[nH]c4ccccc34)NC(=O)[C@H](Cc3ccccc3)NC1=O)[C@]1(C)O[C@H]1[C@H](C)[C@@H]1C[C@@](O)(NC(=O)O1)[C@H](OC)/C=C/C=C(\C)C2` [Conjugate 96], the IC50 was 206 nM under setting [1] and 397 nM under setting [2].

In the case of `COc1cc2cc(c1Cl)N(C)C(=O)C[C@H](OC(=O)[C@H](C)N(C)C(=O)CCSSCCOCCOCCOCCOCCC(=O)N[C@H](Cc1ccccc1)C(=O)N[C@H]1CSSC[C@@H](C(=O)N[C@H](CO)[C@@H](C)O)NC(=O)[C@H]([C@@H](C)O)NC(=O)[C@H](CCCCN)NC(=O)[C@@H](Cc3c[nH]c4ccccc34)NC(=O)[C@H](Cc3ccccc3)NC1=O)[C@]1(C)O[C@H]1[C@H](C)[C@@H]1C[C@@](O)(NC(=O)O1)[C@H](OC)/C=C/C=C(\C)C2` [Conjugate 98], the IC50 reads like this: under setting [1], 690 nM; under setting [2], 1120 nM.

Take `COc1cc2cc(c1Cl)N(C)C(=O)C[C@H](OC(=O)[C@H](C)N(C)C(=O)CCSCCCN[C@H](Cc1ccccc1)C(=O)N[C@H]1CSSC[C@@H](C(=O)N[C@H](CO)[C@@H](C)O)NC(=O)[C@H]([C@@H](C)O)NC(=O)[C@H](CCCCN)NC(=O)[C@@H](Cc3c[nH]c4ccccc34)NC(=O)[C@H](Cc3ccccc3)NC1=O)[C@]1(C)O[C@H]1[C@H](C)[C@@H]1C[C@@](O)(NC(=O)O1)[C@H](OC)/C=C/C=C(\C)C2` [Conjugate 100]: the IC50 reads like this: under setting [1], 303 nM; under setting [2], 1060 nM.

For the molecule `CCCCCCCCCCC(CCN[C@H](Cc1ccccc1)C(=O)N[C@H]1CSSC[C@@H](C(=O)N[C@@H](Cc2c[nH]c3ccccc23)C(N)=O)NC(=O)[C@H]([C@@H](C)O)NC(=O)[C@H](CCCCN)NC(=O)[C@@H](Cc2c[nH]c3ccccc23)NC(=O)[C@H](Cc2ccc(O)cc2)NC1=O)SSCCC(=O)N(C)[C@@H](C)C(=O)O[C@H]1CC(=O)N(C)c2cc(cc(OC)c2Cl)C/C(C)=C/C=C/[C@@H](OC)[C@@]2(O)C[C@H](OC(=O)N2)[C@@H](C)[C@@H]2O[C@@]12C` (stereo partly shown) [Conjugate 102], the half-maximal inhibitory concentration (IC50) is, setting by setting: under setting [1], 335 nM; under setting [2], 579 nM.

For the molecule `COc1cc2cc(c1Cl)N(C)C(=O)C[C@H](OC(=O)[C@H](C)N(C)C(=O)CCSC1CC(=O)N(CC3CCC(C(=O)N[C@H](Cc4ccccc4)C(=O)N[C@H]4CSSC[C@@H](C(=O)N[C@H](CO)[C@@H](C)O)NC(=O)[C@H]([C@@H](C)O)NC(=O)[C@H](CCCCN)NC(=O)[C@@H](Cc5c[nH]c6ccccc56)NC(=O)[C@H](Cc5ccccc5)NC4=O)CC3)C1=O)[C@]1(C)O[C@H]1[C@H](C)[C@@H]1C[C@@](O)(NC(=O)O1)[C@H](OC)/C=C/C=C(\C)C2` (stereo partly shown) [Conjugate 104], the 50% inhibitory concentration (IC50) is, setting by setting: under setting [1], 279 nM; under setting [2], 705 nM.

On to `CCCCCCCCCCC(CCN[C@H](Cc1ccccc1)C(=O)N[C@H]1CSSC[C@@H](C(=O)N[C@@H](CO)[C@@H](C)O)NC(=O)[C@H]([C@@H](C)O)NC(=O)[C@H](CCCCN)NC(=O)[C@@H](Cc2c[nH]c3ccccc23)NC(=O)[C@H](Cc2ccccc2)NC1=O)SSCCC(=O)N(C)[C@@H](C)C(=O)O[C@H]1CC(=O)N(C)c2cc(cc(OC)c2Cl)C/C(C)=C/C=C/[C@@H](OC)[C@@]2(O)C[C@H](OC(=O)N2)[C@@H](C)[C@@H]2O[C@@]12C` (stereo partly shown) [Conjugate 106], for which the half-inhibitory concentration (IC50) was found to be 400 nM under setting [1] and 666 nM under setting [2].

Take `COc1cc2cc(c1Cl)N(C)C(=O)C[C@H](OC(=O)[C@H](C)N(C)C(=O)CCSC1CC(=O)N(CC(=O)N[C@H](Cc3ccccc3)C(=O)N[C@H]3CSSC[C@@H](C(=O)N[C@H](CO)[C@@H](C)O)NC(=O)[C@H]([C@@H](C)O)NC(=O)[C@H](CCCCN)NC(=O)[C@@H](Cc4c[nH]c5ccccc45)NC(=O)[C@H](Cc4ccccc4)NC3=O)C1=O)[C@]1(C)O[C@H]1[C@H](C)[C@@H]1C[C@@](O)(NC(=O)O1)[C@H](OC)/C=C/C=C(\C)C2` (stereo partly shown) [Conjugate 108]: the IC50 by setting is: under setting [1], 96 nM; under setting [2], 1280 nM.

Take `COc1cc2cc(c1Cl)N(C)C(=O)C[C@H](OC(=O)[C@H](C)N(C)C(=O)CCSSCCC(=O)NCCCC[C@@H](N)C(=O)N[C@H]1CSSC[C@@H](C(=O)N[C@H](C(=O)O)[C@@H](C)O)NC(=O)[C@H]([C@@H](C)O)NC(=O)[C@H](CCCCN)NC(=O)[C@@H](Cc3c[nH]c4ccccc34)NC(=O)[C@H](Cc3ccc(O)cc3)NC1=O)[C@]1(C)O[C@H]1[C@H](C)[C@@H]1C[C@@](O)(NC(=O)O1)[C@H](OC)/C=C/C=C(\C)C2` [Conjugate 113]: the half-inhibitory concentration (IC50) under setting [1] stood at 1080 nM and the 50% inhibitory concentration (IC50) under setting [2] came out at 4920 nM.

For `COc1cc2cc(c1Cl)N(C)C(=O)C[C@H](OC(=O)[C@H](C)N(C)C(=O)CCSSC[C@@H](N)C(=O)N[C@H]1CSSC[C@@H](C(=O)N[C@H](C(=O)O)[C@@H](C)O)NC(=O)[C@H]([C@@H](C)O)NC(=O)[C@H](CCCCN)NC(=O)[C@@H](Cc3c[nH]c4ccccc34)NC(=O)[C@H](Cc3ccc(O)cc3)NC1=O)[C@]1(C)O[C@H]1[C@H](C)[C@@H]1C[C@@](O)(NC(=O)O1)[C@H](OC)/C=C/C=C(\C)C2` [Conjugate 119], the IC50 was 2660 nM under setting [1] and greater than 5000 nM under setting [2].

In the case of `C[C@@H](O)[C@@H]1NC(=O)[C@H](CCCCN)NC(=O)[C@@H](Cc2c[nH]c3ccccc23)NC(=O)[C@H](Cc2ccccc2)NC(=O)[C@@H](NC(=O)[C@H](N)Cc2ccccc2)CSSC[C@@H](C(=O)N[C@H](CO)[C@@H](C)O)NC1=O` [Octreotide, octreotide, reference compound], for the setting “octreotide alone”, the “effect on cell proliferation” value was “no significant effect”.
